Legend:
[1] = system: S. cerevisiae strain PALCPR; assay: Growth of evolved PALCPR strains in the presence of extraction solvent (CO2 production); format: cell-based; settings: PALCPR-evolved-III from glycerol stock; 100 ml solvent from start, 800 rpm
Procedure: The cells of the PALCPR-solvent culture described in the previous example were taken as starting point because the presence of the solvent mixture would possibly have already evoked adaptation of cells to solvents. For that, cells of the culture described in the previous example were harvested during mid-exponential-phase and stored at −80° C. in 15% glycerol and subsequently a fermentor, containing the same medium as described in the previous example with 10 g/l glucose and 100 g/l galactose, was then inoculated with cells of said PALCPR-solvent culture. The cells were allowed to fully consume the glucose at a stirring speed of 1000 rpm with an average dissolved oxygen content of above 70% of saturated air. At the onset of galactose consumption, the stirring rate was turned down to 300 rpm, after which slowly 100 ml of octylacetate was added.
Galactose consumption indeed commenced again. A small arrest in CO2 production again occurred after 20 hours which, however, recovered after 5 hours, after which the cells grew exponentially with concomitant production of CO2, consumption of galactose within less than 40 hours. Based upon the CO2 production the specific growth rate was estimated to be 0.062 1/h (FIG. 2). The final biomass concentration was 21.6 g/l.
In order to further improve said strain in terms of length of lag-phase and growth rate, a 25 ml aliquot of the exponentional growing PALCPR-evolved-I strain was used to inoculate a fermentor, containing a similar medium as described in the previous example. However, the medium now only contained 100 g/l galactose and did contain 100 ml of octylacetate from the beginning of the fermentation. In addition, the stirrer speed was instantly set at 800 rpm. Upon inoculation of the fermentor, consumption of galactose only commenced after approximately 40 hours, indicated by a slow increase in CO2 signal, a decrease in dissolved oxygen and addition of base. Indeed the cells continued to grow exponentially with concomitant production of CO2, and consumed the galactose within less than 90 hours. Based upon the CO2 production the specific growth rate was estimated to be 0.041 1/h (FIG. 3). The final biomass concentration was 21.5 g/l. The strain is referred to as PALCPR-evolved-II.
Therefore, to further improve said strain in terms of both length of lag-phase and growth rate, a 50 ml aliquot of the exponentional growing PALCPR-evolved-II strain was used to inoculate a fermentor, containing a similar medium as described in the previous example (thus containing 100 g/l galactose 100 ml of octylacetate from the beginning of the fermentation). The stirrer speed was instantly set at 800 rpm. Upon inoculation of the fermentor, consumption of galactose already commenced after less then 20 hours, indicated by a slow increase in CO2 signal, a decrease in dissolved oxygen and addition of base. Indeed the cells further grew exponentially with concomitant production of CO2, and now consumed the galactose within approximately 50 hours. Based upon the CO2 production the specific growth rate was estimated to be 0.091 1/h (FIG. 4). The final biomass concentration was 18.9 g/l. The strain is referred to as PALCPR-evolved-III.
The evolved PALCPR-evolved-III strain described in the previous example was grown in the presence of nonyl-acetate, a similar solvent as octylacetate with one additional carbon atom. A 1 ml aliquot of a glycerol stock that was made from an exponentional growing PALCPR-evolved-III strain was used to inoculate a fermentor, containing a similar medium as described in the previous example, containing only 100 g/l galactose and 100 ml of nonyl-acetate from the beginning of the fermentation. The stirrer speed was instantly set at 800 rpm. Upon inoculation of the fermentor, consumption of galactose only commenced after approximately 70 hours, indicated by a slow increase in CO2 signal, a decrease in dissolved oxygen and addition of base. […]

[2] = system: S. cerevisiae strain FS09229; assay: Growth of non-evolved strain FS09229 in the presence of extraction solvent (CO2 production); format: cell-based; settings: 100 ml solvent from start, 800 rpm
Procedure: The non-evolved FS09229 strain described in previous examples was grown in the presence of nonyl-acetate. A 1 ml aliquot of a glycerol stock that was made from an exponentional growing FS09229 strain was used to inoculate a fermentor, containing a similar medium as described in the previous example, but now containing 100 g/l glucose and 100 ml of nonyl-acetate from the beginning of the fermentation. The stirrer speed was instantly set at 800 rpm. Upon inoculation of the fermentor, a long lag-phase of approximately 70 hrs set-in, during which an apparent adaptation to the solvent took place. Consumption of glucose only then commenced, indicated by a slow increase in CO2 signal, a decrease in dissolved oxygen and addition of base. Indeed the cells continued to grow exponentially with concomitant production of CO2, and consumed the glucose within less than 25 hours. […] The final biomass concentration was 15.5 g/l. The cultivation will be referred to as FS09229-solvent. As a control-experiment said strain was grown in the similar medium without the addition of nonyl-acetate. Upon inoculation of the fermentor, consumption of glucose commenced already after approximately 10 hours, indicated by an increase in CO2 signal, a decrease in dissolved oxygen and addition of base. […]

[3] = partition coefficient between water and octanol; cited from earlier work

CCCCCCCCCOC(C)=O [nonyl-acetate]
lag-phase until galactose consumption commenced [1]: approximately 70 hours
specific growth rate [1]: 0.098 h⁻¹
lag-phase [2]: approximately 70 hrs
specific growth rate ([2]; 100 g/l glucose): 0.176 h⁻¹
logP [3]: 4.2
